Measured values published in PMC11012124, “Synthesis of Novel Triazine-Based Chalcones and 8,9-dihydro-7H-pyrimido[4,5-b][1,4]diazepines as Potential Leads in the Search of Anticancer, Antibacterial and Antifungal Agents” (International Journal of Molecular Sciences, 2024).

Experiments:
Experiment in all cases: cells
NCI-H460 = settings: Homo sapiens, NCI-H460, 48 h; for CC50: read-out: LC50
CCRF-CEM = settings: Homo sapiens, 48 h; for CC50: read-out: LC50
OVCAR-4 = settings: Homo sapiens, OVCAR-4, 48 h; for CC50: read-out: LC50
SF-295 = settings: Homo sapiens, SF-295, 48 h; for CC50: read-out: LC50
UACC-257 = settings: Homo sapiens, UACC-257, 48 h; for CC50: read-out: LC50
SN12C = settings: Homo sapiens, 48 h; for CC50: read-out: LC50
HL-60(TB) = settings: Homo sapiens, HL-60, 48 h; for CC50: read-out: LC50
LOX IMVI = settings: Homo sapiens, 48 h
OVCAR-5 = settings: Homo sapiens, OVCAR-5, 48 h; for CC50: read-out: LC50
SK-MEL-5 = settings: Homo sapiens, SK-MEL-5, 48 h; for CC50: read-out: LC50
TK-10 = settings: Homo sapiens, TK-10, 48 h; for CC50: read-out: LC50
K-562 = settings: Homo sapiens, K562, 48 h; for GI50: K-562, 48 h; for CC50: read-out: LC50
NCI-H226 = settings: Homo sapiens, NCI-H226, 48 h; for CC50: read-out: LC50
MDA-MB-435 = settings: Homo sapiens, MDA-MB-435, 48 h; for CC50: read-out: LC50
SK-MEL-2 = settings: Homo sapiens, SK-MEL-2, 48 h; for CC50: read-out: LC50
SR = settings: Homo sapiens, 48 h; for CC50: read-out: LC50
A498 = settings: Homo sapiens, A498, 48 h; for CC50: read-out: LC50
MCF7 = settings: Homo sapiens, MCF7, 48 h; for CC50: read-out: LC50
SF-268 = settings: Homo sapiens, SF-268, 48 h; for CC50: read-out: LC50
IGROV1 = settings: Homo sapiens, IGROV-1, 48 h
OVCAR-3 = settings: Homo sapiens, OVCAR-3, 48 h; for CC50: read-out: LC50
HOP-92 = settings: Homo sapiens, HOP-92, 48 h; for CC50: read-out: LC50
NCI/ADR-RES = settings: Homo sapiens, 48 h; for CC50: read-out: LC50
786-0 = settings: Homo sapiens, 786-0, 48 h; for CC50: read-out: LC50

Structure (SMILES): Nc1nc(N)c2c(n1)NC(c1ccc(F)cc1)CC(c1ccc(Nc3nc(NCCO)nc(Nc4ccc(Cl)cc4)n3)cc1)=N2 (stereo not shown) [33f]
- GI50 (NCI-H460): 1.71 µM
- CC50 (NCI-H460): 7.73 µM
- GI50 (CCRF-CEM): 0.754 µM
- CC50 (CCRF-CEM): > 100 µM
- GI50 (OVCAR-4): 1.93 µM
- CC50 (OVCAR-4): > 100 µM
- GI50 (SF-295): 1.96 µM
- CC50 (SF-295): 7.15 µM
- GI50 (UACC-257): 1.85 µM
- CC50 (UACC-257): 6.69 µM
- GI50 (SN12C): 2.08 µM
- CC50 (SN12C): > 100 µM
- GI50 (HL-60(TB)): 0.863 µM
- CC50 (HL-60(TB)): > 100 µM
- GI50 (LOX IMVI): 1.52 µM
- GI50 (OVCAR-5): 5.1 µM
- CC50 (OVCAR-5): > 100 µM
- GI50 (SK-MEL-5): 1.46 µM
- CC50 (SK-MEL-5): 5.3 µM
- GI50 (TK-10): 4.61 µM
- CC50 (TK-10): 45.5 µM
- GI50 (K-562): 0.489 µM
- CC50 (K-562): > 100 µM
- GI50 (NCI-H226): 2.49 µM
- CC50 (NCI-H226): 37.9 µM
- GI50 (MDA-MB-435): 1.7 µM
- CC50 (MDA-MB-435): 7.42 µM
- GI50 (SK-MEL-2): 1.67 µM
- CC50 (SK-MEL-2): 5.75 µM
- GI50 (SR): 0.672 µM
- CC50 (SR): > 100 µM
- GI50 (A498): 3.72 µM
- CC50 (A498): 39.1 µM
- GI50 (MCF7): 0.956 µM
- CC50 (MCF7): 6 µM
- GI50 (SF-268): 2.85 µM
- CC50 (SF-268): 76 µM
- GI50 (IGROV1): 1.7 µM
- GI50 (OVCAR-3): 1.58 µM
- CC50 (OVCAR-3): 6.82 µM
- GI50 (HOP-92): 1.25 µM
- CC50 (HOP-92): 10.2 µM
- GI50 (NCI/ADR-RES): 7.73 µM
- CC50 (NCI/ADR-RES): > 100 µM
- GI50 (786-0): 1.36 µM
- CC50 (786-0): 7.12 µM

Structure (SMILES): COc1cc(/C=C/C(=O)c2ccc(C)cc2)ccc1Oc1nc(NCCO)nc(N2CCOCC2)n1 [20b]
- GI50 (NCI-H460): 2.2 µM
- CC50 (NCI-H460): > 100 µM
- GI50 (CCRF-CEM): 2.71 µM
- CC50 (CCRF-CEM): > 100 µM
- GI50 (OVCAR-4): 3.92 µM
- CC50 (OVCAR-4): > 100 µM
- CC50 (SF-295): > 100 µM
- GI50 (UACC-257): 3.98 µM
- CC50 (UACC-257): > 100 µM
- GI50 (SN12C): 2.35 µM
- CC50 (SN12C): > 100 µM
- GI50 (HL-60(TB)): 2.07 µM
- CC50 (HL-60(TB)): > 100 µM
- GI50 (LOX IMVI): 0.43 µM
- CC50 (LOX IMVI; read-out: LC50, LOX IMVI, 48 h): 4.09 µM
- GI50 (OVCAR-5): 3.22 µM
- CC50 (OVCAR-5): > 100 µM
- GI50 (SK-MEL-5): 2 µM
- GI50 (TK-10): > 100 µM
- CC50 (TK-10): > 100 µM
- GI50 (K-562): 1.53 µM
- CC50 (K-562): > 100 µM
- GI50 (NCI-H226): 6.28 µM
- CC50 (NCI-H226): > 100 µM
- GI50 (MDA-MB-435): 3.31 µM
- CC50 (MDA-MB-435): > 100 µM
- GI50 (SK-MEL-2): 8.17 µM
- CC50 (SK-MEL-2): > 100 µM
- GI50 (SR): 1.06 µM
- CC50 (SR): > 100 µM
- GI50 (A498): > 100 µM
- CC50 (A498): > 100 µM
- GI50 (MCF7): 1.5 µM
- CC50 (MCF7): > 100 µM
- GI50 (SF-268): 2.9 µM
- CC50 (SF-268): > 100 µM
- GI50 (IGROV1): 3.1 µM
- CC50 (IGROV1; read-out: LC50): > 100 µM
- GI50 (OVCAR-3): 2.49 µM
- CC50 (OVCAR-3): > 100 µM
- GI50 (HOP-92): 8.4 µM
- CC50 (HOP-92): > 100 µM
- GI50 (NCI/ADR-RES): 2.08 µM
- CC50 (NCI/ADR-RES): > 100 µM
- GI50 (786-0): 2.18 µM
- CC50 (786-0): > 100 µM

Structure (SMILES): Nc1nc(N)c2c(n1)NC(c1ccc(C(F)(F)F)cc1)CC(c1ccc(Nc3nc(NCCO)nc(Nc4ccc(Cl)cc4)n3)cc1)=N2 (stereo not shown) [33g]
- GI50 (NCI-H460): 1.96 µM
- CC50 (NCI-H460): 8.23 µM
- GI50 (CCRF-CEM): 1.23 µM
- CC50 (CCRF-CEM): > 100 µM
- GI50 (OVCAR-4): 2.23 µM
- CC50 (OVCAR-4): > 100 µM
- GI50 (SF-295): 1.79 µM
- CC50 (SF-295): 6.14 µM
- GI50 (UACC-257): 1.75 µM
- CC50 (UACC-257): 5.82 µM
- GI50 (SN12C): 1.76 µM
- CC50 (SN12C): 6.35 µM
- GI50 (HL-60(TB)): 1.28 µM
- CC50 (HL-60(TB)): > 100 µM
- GI50 (LOX IMVI): 1.77 µM
- GI50 (OVCAR-5): 1.6 µM
- CC50 (OVCAR-5): 5.64 µM
- GI50 (SK-MEL-5): 1.55 µM
- CC50 (SK-MEL-5): 5.37 µM
- GI50 (TK-10): 1.78 µM
- CC50 (TK-10): 5.63 µM
- GI50 (K-562): 0.642 µM
- CC50 (K-562): > 100 µM
- GI50 (NCI-H226): 1.84 µM
- CC50 (NCI-H226): 8.31 µM
- GI50 (MDA-MB-435): 1.4 µM
- CC50 (MDA-MB-435): 5.3 µM
- GI50 (SK-MEL-2): 1.67 µM
- CC50 (SK-MEL-2): 5.64 µM
- GI50 (SR): 1.46 µM
- CC50 (SR): > 100 µM
- GI50 (A498): 1.56 µM
- CC50 (A498): 5.4 µM
- GI50 (MCF7): 1.26 µM
- GI50 (SF-268): 1.66 µM
- CC50 (SF-268): 7.27 µM
- GI50 (IGROV1): 1.37 µM
- GI50 (OVCAR-3): 1.32 µM
- CC50 (OVCAR-3): 6.57 µM
- GI50 (HOP-92): 1.48 µM
- CC50 (HOP-92): 7.94 µM
- GI50 (NCI/ADR-RES): 1.95 µM
- GI50 (786-0): 1.39 µM
- CC50 (786-0): 6.09 µM
